Test results from patent publication US7659404B2, “Broad spectrum 2-(substituted-amino)-benzothiazole sulfonamide HIV protease inhibitors” (Tibotec Pharmaceuticals Ltd., priority 2001, dated 2010).

Tests used:
[1] = system: clinically isolated HIV strain P; assay: Antiviral spectrum, cellular assay (fold resistance), strain P; format: cell-based; details: FR=EC50(mutant strain)/EC50(HIV-1 strain LAI)
Description: (§1) HIV- or mock-infected MT4 cells were incubated for five days in the presence of various concentrations of the inhibitor. At the end of the incubation period, all HIV-infected cells have been killed by the replicating virus in the control cultures in the absence of any inhibitor. Cell viability is measured by measuring the concentration of MTT, a yellow, water soluble tetrazolium dye that is converted to a purple, water insoluble formazan in the mitochondria of living cells only. Upon solubilization of the resulting formazan crystals with isopropanol, the absorbance of the solution is monitored at 540 nm. The values correlate directly to the number of living cells remaining in the culture at the completion of the five day incubation. The inhibitory activity of the compound was monitored on the virus-infected cells and was expressed as EC50 and EC90. These values represent the amount of the compound required to protect 50% and 90%, respectively, of the cells from the cytopathogenic effect of the virus. The toxicity of the compound was measured on the mock-infected cells and was expressed as CC50, which represents the concentration of compound required to inhibit the growth of the cells by 50%. The selectivity index (SI) (ratio CC50/EC50) is an indication of the selectivity of the anti-HIV activity of the inhibitor.
(§2) Because of the increasing emergence of drug resistant HIV strains, the present compounds were tested for their potency against clinically isolated HIV strains harboring several mutations. These mutations are associated with resistance to protease inhibitors and result in viruses that show various degrees of phenotypic cross-resistance to the currently commercially available drugs such as for instance saquinavir, ritonavir, nelfinavir, indinavir and amprenavir.
(§3) As a measure of the broad spectrum activity of the present compounds, the fold resistance (FR) defined as FR=EC50(mutant strain)/EC50(HIV-1 strain LAI).

[2] = system: clinically isolated HIV strain M; assay: Antiviral spectrum, cellular assay (fold resistance), strain M; format: cell-based; details: FR=EC50(mutant strain)/EC50(HIV-1 strain LAI)
Description: as §1, §2, §3

[3] = system: HIV-1 strain LAI; assay: Cellular anti-HIV assay in MT4 cells (MTT), wild type laboratory strain; format: cell-based; details: Human immunodeficiency virus 1, 120 h; MT4 cells, five days, MTT; read-out: EC50 value against HIV-1 strain LAI
Description: The compounds of the present invention were examined for anti-viral activity in a cellular assay. […] The cellular assay was performed according to the following procedure.
Cellular Assay Experimental Method:
as §1

[4] = system: clinically isolated HIV strain A; assay: Antiviral spectrum, cellular assay (fold resistance), strain A; format: cell-based; details: FR=EC50(mutant strain)/EC50(HIV-1 strain LAI)
Description: as §1, §2, §3

[5] = system: clinically isolated HIV strain N; assay: Antiviral spectrum, cellular assay (fold resistance), strain N; format: cell-based; details: FR=EC50(mutant strain)/EC50(HIV-1 strain LAI)
Description: as §1, §2, §3

[6] = system: clinically isolated HIV strain Q; assay: Antiviral spectrum, cellular assay (fold resistance), strain Q; format: cell-based; details: FR=EC50(mutant strain)/EC50(HIV-1 strain LAI)
Description: as §1, §2, §3

[7] = system: clinically isolated HIV strain B; assay: Antiviral spectrum, cellular assay (fold resistance), strain B; format: cell-based; details: FR=EC50(mutant strain)/EC50(HIV-1 strain LAI)
Description: as §1, §2, §3

[8] = system: clinically isolated HIV strain G; assay: Antiviral spectrum, cellular assay (fold resistance), strain G; format: cell-based; details: FR=EC50(mutant strain)/EC50(HIV-1 strain LAI)
Description: as §1, §2, §3

[9] = system: clinically isolated HIV strain K; assay: Antiviral spectrum, cellular assay (fold resistance), strain K; format: cell-based; details: FR=EC50(mutant strain)/EC50(HIV-1 strain LAI)
Description: as §1, §2, §3

[10] = system: clinically isolated HIV strain E; assay: Antiviral spectrum, cellular assay (fold resistance), strain E; format: cell-based; details: FR=EC50(mutant strain)/EC50(HIV-1 strain LAI)
Description: as §1, §2, §3

[11] = system: clinically isolated HIV strain R; assay: Antiviral spectrum, cellular assay (fold resistance), strain R; format: cell-based; details: FR=EC50(mutant strain)/EC50(HIV-1 strain LAI)
Description: as §1, §2, §3

[12] = system: clinically isolated HIV strain D; assay: Antiviral spectrum, cellular assay (fold resistance), strain D; format: cell-based; details: FR=EC50(mutant strain)/EC50(HIV-1 strain LAI)
Description: as §1, §2, §3

[13] = system: virus strain S (R13080); assay: microbe, parasite or virus in culture; format: cell-based, HIV; details: FR=EC50(mutant strain)/EC50(HIV-1 strain LAI); strain S
Method in brief: (§4)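 MT4 cells, HIV or mock infection, 5 d with compound dilutions; MTT readout, formazan in isopropanol, A540. EC50/EC90 = conc. protecting 50/90% of cells from CPE; CC50 from mock-infected cells. FR = EC50 mutant/EC50 LAI.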

[14] = system: virus strain F (R13025); assay: microbe, parasite or virus in culture; format: cell-based, HIV; details: FR=EC50(mutant strain)/EC50(HIV-1 strain LAI); strain F
Method in brief: as §4

[15] = system: clinically isolated HIV strain C; assay: Antiviral spectrum, cellular assay (fold resistance), strain C; format: cell-based; details: FR=EC50(mutant strain)/EC50(HIV-1 strain LAI)
Description: as §1, §2, §3

[16] = system: clinically isolated HIV strain H; format: cell-based; details: FR=EC50(mutant strain)/EC50(HIV-1 strain LAI)
Method in brief: as §4

[17] = system: clinically isolated HIV strain J; format: cell-based; details: FR=EC50(mutant strain)/EC50(HIV-1 strain LAI)
Method in brief: as §4

[18] = system: clinically isolated HIV strain O; format: cell-based; details: FR=EC50(mutant strain)/EC50(HIV-1 strain LAI)
Method in brief: as §4

[19] = system: clinically isolated HIV strain T; format: cell-based; details: FR=EC50(mutant strain)/EC50(HIV-1 strain LAI)
Method in brief: as §4

[20] = system: clinically isolated HIV strain I; format: cell-based; details: FR=EC50(mutant strain)/EC50(HIV-1 strain LAI)
Method in brief: as §4

[21] = system: clinically isolated HIV strain L; assay: Antiviral spectrum, cellular assay (fold resistance), strain L; format: cell-based; details: FR=EC50(mutant strain)/EC50(HIV-1 strain LAI)
Description: as §1, §2, §3

CC(C)CN(C[C@@H](O)[C@H](Cc1ccccc1)NC(=O)O[C@H]1CO[C@H]2OCC[C@H]21)S(=O)(=O)c1ccc2nc(NCCN(C)C)sc2c1 [Compound 16]
fold resistance (FR), strain P [1]: 0.1
fold resistance (FR), strain M [2]: 0.2
EC50 [3]: < 50 nM
fold resistance (FR), strain A [4]: 0.2
fold resistance (FR), strain N [5]: 0.4
fold resistance (FR), strain Q [6]: 0.2
fold resistance (FR), strain B [7]: 0.3
fold resistance (FR), strain G [8]: 0.2
fold resistance (FR), strain K [9]: 0.2
fold resistance (FR), strain E [10]: 0.3
fold resistance (FR), strain R [11]: 0.2
fold resistance (FR), strain D [12]: 0.2
fold resistance (FR), strain S [13]: 1.6
fold resistance (FR), strain F [14]: 0.4
fold resistance (FR), strain C [15]: 0.2
fold resistance (FR), strain H [16]: 0.3
fold resistance (FR), strain J [17]: 0.3
fold resistance (FR), strain O [18]: 0.3
fold resistance (FR), strain T [19]: 6.6
fold resistance (FR), strain I [20]: 0.3
fold resistance (FR), strain L [21]: 0.1

CCOC(=O)Nc1nc2ccc(S(=O)(=O)N(CC(C)C)CC(O)C(Cc3ccccc3)NC(=O)OC3COC4OCCC34)cc2s1 (stereo not drawn) [Compound 2]
fold resistance (FR), strain P [1]: 0.2
fold resistance (FR), strain M [2]: 0.3
EC50 [3]: < 50 nM
fold resistance (FR), strain A [4]: 0.3
fold resistance (FR), strain N [5]: 1.1
fold resistance (FR), strain Q [6]: 0.3
fold resistance (FR), strain B [7]: 0.2
fold resistance (FR), strain G [8]: 0.2
fold resistance (FR), strain K [9]: 0.2
fold resistance (FR), strain E [10]: 0.4
fold resistance (FR), strain R [11]: 0.3
fold resistance (FR), strain D [12]: 0.3
fold resistance (FR), strain S [13]: 1.7
fold resistance (FR), strain F [14]: 1.1
fold resistance (FR), strain C [15]: 0.2
fold resistance (FR), strain H [16]: 1.0
fold resistance (FR), strain J [17]: 0.4
fold resistance (FR), strain O [18]: 0.8
fold resistance (FR), strain T [19]: 29.6
fold resistance (FR), strain I [20]: 0.7
fold resistance (FR), strain L [21]: 0.2

CC(C)CN(CC(O)C(Cc1ccccc1)NC(=O)OC1COC2OCCC12)S(=O)(=O)c1ccc2nc(NC(=O)CN3CCCC3)sc2c1 (stereo not drawn) [Compound 12]
fold resistance (FR), strain P [1]: 0.1
fold resistance (FR), strain M [2]: 0.2
EC50 [3]: < 50 nM
fold resistance (FR), strain A [4]: 0.3
fold resistance (FR), strain N [5]: 0.4
fold resistance (FR), strain Q [6]: 0.4
fold resistance (FR), strain B [7]: 0.4
fold resistance (FR), strain G [8]: 0.2
fold resistance (FR), strain K [9]: 0.2
fold resistance (FR), strain E [10]: 0.4
fold resistance (FR), strain R [11]: 0.4
fold resistance (FR), strain D [12]: 0.4
fold resistance (FR), strain S [13]: 0.8
fold resistance (FR), strain F [14]: 0.4
fold resistance (FR), strain C [15]: 0.3
fold resistance (FR), strain H [16]: 0.4
fold resistance (FR), strain J [17]: 0.3
fold resistance (FR), strain O [18]: 0.4
fold resistance (FR), strain T [19]: 5.9
fold resistance (FR), strain I [20]: 0.4
fold resistance (FR), strain L [21]: 0.1
